Consider three molecules from PMC4013053, “Identification of Selective Small Molecule Inhibitors of the Nucleotide-Binding Oligomerization Domain 1 (NOD1) Signaling Pathway” (PLoS ONE, 2014).

The test system of assay [1] is NOD1 induced NF-κB and MAPK pathways. The experiment in a line: Western blotting of IκBα and phospho-MAPKs in Tri-DAP stimulated 293/hNOD1 cells. The note with it: 50 µg/mL Tri-DAP 1 hour, immunoblotting. In kind it is cell-based, human. The procedure: Confluent cultures of 293/hNOD1 and -hNOD2 cells seeded in 24-well plates were serum-starved over-night, pre-incubated for 1 hour with compound and then stimulated for 1 hour with either 50 µg/mL Tri-DAP or 25 µg/mL MDP, respectively. Whole cell lysates were prepared in 1X cell lysis buffer (Cell Signaling Technology) supplemented with additional protease, aminopeptidase and phosphatase inhibitors (protease inhibitor cocktail set III, EMD Biosciences; phosphatase inhibitor sets II and III, Sigma-Aldrich). The levels of phosphorylated and total p38, JNK, ERK1/2 and total IκBα were determined by immunoblotting of ∼20 µg protein per sample using the following primary antibodies: phospho-p38 MAPK (12F8, #4631), p38 MAPK (#9212), phospho-JNK (#9251), JNK (#9252) and IκBα (#9242) all purchased from Cell Signaling Technology, and phospho-ERK1/2 (sc-7383) and ERK1/2 (sc-94) antibodies from Santa Cruz Biotechnology.

The subject of a further assay is NOD1. The arrangement: method as in PMID 22870324. The note with it: human lung microvascular endothelial cells, 10 µg/mL iE-DAP; cited from earlier work.
A further assay addresses NOD2 (Homo sapiens, UniProt Q9HC29). The experiment in a line: MDP-stimulated IL-8 secretion in primary human monocytes. Type of assay: cell-based. More on the design: Monocytes were purified from heparinized human whole blood; endogenous in cells; host or cells: primary human blood monocytes. Here is the method: Monocytes were purified from heparinized human whole blood by centrifugation on Ficoll (Histopaque 1077) followed by Percoll gradients. Monocyte purity was >95% by morphological assessment of Wright’s stained cytospins. Cells were seeded at 100,000 per well in 96-well plates in RPMI containing 10%HI-FBS, pre-incubated for 1 hour with compounds, and then stimulated with either 25 µg/mL Tri-DAP or 1 µg/mL MDP. The concentration of IL-8 in medium samples collected after 24-hour treatment was determined by HTRF whereas IL-1β, IL-6 and TNFα were measured using the MS6000 human pro-inflammatory-4 II tissue culture kit (Meso Scale Discovery).

The next assay deals with T1, EPHB2 (Homo sapiens, UniProt P29323).
T1 construct: purchased Reaction Biology Corp
T1 sequence (P29323 19-1055): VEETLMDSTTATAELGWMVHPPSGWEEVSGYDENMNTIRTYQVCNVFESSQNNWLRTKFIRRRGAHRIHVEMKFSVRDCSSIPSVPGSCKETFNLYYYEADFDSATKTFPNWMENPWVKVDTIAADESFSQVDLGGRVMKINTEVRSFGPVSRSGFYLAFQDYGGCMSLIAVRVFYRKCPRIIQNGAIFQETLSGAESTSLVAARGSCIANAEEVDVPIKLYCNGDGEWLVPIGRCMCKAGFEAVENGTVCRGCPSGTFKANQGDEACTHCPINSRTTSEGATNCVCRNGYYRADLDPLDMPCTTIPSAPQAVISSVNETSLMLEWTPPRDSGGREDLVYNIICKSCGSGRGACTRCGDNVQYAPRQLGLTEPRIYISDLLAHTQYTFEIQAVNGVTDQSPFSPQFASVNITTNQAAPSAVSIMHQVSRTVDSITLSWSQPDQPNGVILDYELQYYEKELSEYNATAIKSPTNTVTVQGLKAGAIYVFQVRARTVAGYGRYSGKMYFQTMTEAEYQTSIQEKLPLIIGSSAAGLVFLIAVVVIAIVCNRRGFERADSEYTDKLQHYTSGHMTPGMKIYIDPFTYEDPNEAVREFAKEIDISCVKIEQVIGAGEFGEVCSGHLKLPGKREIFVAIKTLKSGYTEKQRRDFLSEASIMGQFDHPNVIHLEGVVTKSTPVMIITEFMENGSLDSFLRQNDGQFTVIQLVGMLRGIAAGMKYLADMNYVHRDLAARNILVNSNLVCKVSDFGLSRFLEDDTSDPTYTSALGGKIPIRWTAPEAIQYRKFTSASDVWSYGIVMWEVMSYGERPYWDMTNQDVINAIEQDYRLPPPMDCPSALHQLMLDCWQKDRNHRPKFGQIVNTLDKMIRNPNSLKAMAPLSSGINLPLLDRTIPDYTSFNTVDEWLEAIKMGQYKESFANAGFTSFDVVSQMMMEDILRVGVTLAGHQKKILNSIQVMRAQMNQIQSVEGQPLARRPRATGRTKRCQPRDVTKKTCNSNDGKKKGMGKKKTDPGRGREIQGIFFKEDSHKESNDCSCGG
Kind of assay: Kinase activity panel: EPHB2. Type of assay: biochemical. The note with it: 1 µM compound, 10 µM ATP. Here is the method: The compounds were tested in duplicate at 1 µM with a 20-minute pre-incubation with enzyme followed by addition of 10 µM ATP.

Chain of NOD2 (Q9HC29 whole entry): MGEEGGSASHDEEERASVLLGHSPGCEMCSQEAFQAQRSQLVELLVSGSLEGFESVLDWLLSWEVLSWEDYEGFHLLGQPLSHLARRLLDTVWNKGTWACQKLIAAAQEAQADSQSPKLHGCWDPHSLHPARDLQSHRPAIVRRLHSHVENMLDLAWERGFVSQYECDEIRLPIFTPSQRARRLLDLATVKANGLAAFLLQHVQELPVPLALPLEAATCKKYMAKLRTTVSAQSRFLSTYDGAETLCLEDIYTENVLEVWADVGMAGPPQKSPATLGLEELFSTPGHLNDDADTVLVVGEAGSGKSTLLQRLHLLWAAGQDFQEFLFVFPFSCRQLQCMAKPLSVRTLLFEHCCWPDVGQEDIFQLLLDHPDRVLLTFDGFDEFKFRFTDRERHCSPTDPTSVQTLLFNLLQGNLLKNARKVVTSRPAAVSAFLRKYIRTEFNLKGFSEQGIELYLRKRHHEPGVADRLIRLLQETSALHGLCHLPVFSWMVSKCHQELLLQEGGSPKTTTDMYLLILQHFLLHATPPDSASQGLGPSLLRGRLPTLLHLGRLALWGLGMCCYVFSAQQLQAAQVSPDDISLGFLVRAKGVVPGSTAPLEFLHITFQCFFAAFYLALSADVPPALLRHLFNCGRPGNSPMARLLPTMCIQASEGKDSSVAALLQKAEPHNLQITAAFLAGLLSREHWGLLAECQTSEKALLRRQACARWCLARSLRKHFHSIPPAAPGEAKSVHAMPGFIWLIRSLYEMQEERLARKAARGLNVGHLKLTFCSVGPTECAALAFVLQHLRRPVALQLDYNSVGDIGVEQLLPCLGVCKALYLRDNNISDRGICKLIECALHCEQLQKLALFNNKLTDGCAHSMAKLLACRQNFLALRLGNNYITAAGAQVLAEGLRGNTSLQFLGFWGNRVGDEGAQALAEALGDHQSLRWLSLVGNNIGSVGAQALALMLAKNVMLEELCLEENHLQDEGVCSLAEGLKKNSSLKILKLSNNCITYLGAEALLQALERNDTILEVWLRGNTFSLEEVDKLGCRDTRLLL

In the case of `Cc1ccc(S(=O)(=O)Nc2cccc(C(=O)Nc3ccc4nc(C)sc4c3)c2)cc1` [Compound 16], in assay [1], the “effect on Tri-DAP induced p-JNK, p-p38 and IκBα responses” value was “reduced both phospho-JNK and the weaker phospho-p38 levels while levels of IκBα were increased”.

As for `Cc1nc2ccccc2c(=O)n1-c1ccc(Cl)c(NS(=O)(=O)c2ccccc2F)c1` [Compound 22], in the assay with NOD1, the “effect on IL-8 secretion, iE-DAP stimulated” value is given as “inhibited IL-8 secretion”. In addition, at NOD2, the “effect on MDP induced IL-8 secretion” value is “did not inhibit”.

`Cn1c(=O)[nH]c(=O)c2c1nc(CCSc1ccccc1)n2Cc1ccccc1` [SB711]: the “decrease of EPHB2 activity” value on EPHB2 is 51%.
